From US20110306040A1, “CPG RECEPTOR (CPG-R) AND METHODS RELATING THERETO” (priority 1999, published 2011)

Key:
NF-κB = assay: κB-Luc assay in RAW 264.7 macrophages; type: cell-based, mouse; conditions: for κB-dependent luciferase expression: RAW 264.7 transfected with κB-Luc, IL-1 20 ng/ml, MPL 1 μg/ml, oligonucleotides 4 μM, normalized to untreated transfected cells
Protocol: RAW 264.7 cells were seeded into 6-well plates (Corning) at a density of 3×10^5 cells per well 24 hours prior to transfection. Plasmids used in transfection were pNF-κB-Luc (Clontech) and pCR3. V64-Met-Flag-MyD88lpr (kindly provided by Jurgen Tschopp; described in (Burns et al., J. Biol. Chem., 1998, 273, 12203-9). Total plasmid DNA concentration was normalized across all wells by addition of empty vector (pCMVKm2, Chiron). Cells were transfected with stated concentrations of DNA in Opti-MEM I (Gibco BRL) with […] of LipofectAMINE (Gibco BRL) per well according to manufacturer's instructions. Cells were incubated with the transfection mixture 3 hours at 37° C., then culture media was replaced and cells were allowed to recover overnight. The following day transfected cells were treated in culture media at 37° C., 5% CO2 with phosphorothioate oligonucleotides, MPL, LPS, or cytokines at indicated concentrations and times. Cells were washed once with cold phosphate buffered saline (PBS), and lysed with Reporter Lysis BufferJ (Promega). Luciferase activity in lysate supematants was determined using Microlite 2 plates (Dynex) and a ML 3000 Luminometer (Dynatech) all according to manufacture's instructions. For detection of FLAG-MyD88lpr expression, the insoluble pellet from transfected RAW 264.7 cells was resuspended in Triton lysis buffer and sonicated 10 minutes prior to addition of sample buffer and boiling. After separation and transfer to nitrocellulose, membranes were immunoblotted using FLAG M2 (Sigma) antibody.
To directly evaluate κB-dependent transcription induced by CpG oligonucleotide or MPL treatment, RAW 264.7 macrophage were transfected with an NF-κB-inducible reporter plasmid encoding luciferase under the control of multiple copies of the kappa light chain enhancer (κB-Luc) and the following day treated with adjuvants or cytokines. In particular, RAW 264.7 cells were transfected with a kB-driven luciferase reporter gene and treated 24 hours later with IL-1 (20 ng/ml), MPL (1 μg/ml), LPS (1 μg/ml) or a phosphorothioate CpG oligonucleotide (4 μM) for 6 hours. Luciferase activity in cell lysates was quantified by luminometry, and results were normalized to the luciferase signal in untreated transfected cells.
The effects of CpG oligonucleotide on κB-dependent luciferase expression were dose- and time-dependent (see FIGS. 1B and 1C). In regard to FIG. 1B, RAW 264.7 cells transiently transfected with a κB-luciferase reporter plasmid were treated 24 hours later with concentrations of phosphorothioate CpG oligonucleotide concentrations ranging from 0.25-8 μM, or a control oligonucleotide (4 μM) for 6 hours. Activation was detected at CpG oligonucleotide concentrations as low as 0.25 μM (FIG. 1B), but not at the lowest concentration tested (0.05 μM) (data not shown). Data shown in FIG. 1B are average luciferase activity in lysates from duplicate wells normalized to luciferase levels in lysates from untreated transfected wells on the same 6-well tissue culture plate. […] In regard to FIG. 1C, RAW 264.7 cells transiently transfected with a kB-Luc and treated 24 hours later with a CpG-containing oligonucleotide (4 μM; open circles), or LPS (1 μg/ml; filled circles). Results shown in FIG. 1C are average of duplicate wells normalized to untreated transfected wells.

[1] = test system: CD86 expression on TLR4 mutant BMDDC; assay: Flow cytometry of cell-surface CD86 on TLR4 mutant (C3H/HeJ) BMDDC; type: cell-based, mouse; conditions: overnight, oligonucleotide 5 μM, LPS 1 μg/ml, normalized to untreated
Protocol: (§1) Bone marrow was harvested from female mice 6-12 weeks old of various genotypes (C57Bl/6, Balb/c; Charles River; or C3H/HeJ, Jackson Labs). Bone marrow cells were used fresh or were frozen in fetal calf serum (FCS; Summit) containing 10% dimethylsulfoxide and stored at −80° C. Bone-marrow macrophages (BMMO) were prepared as described in Current Protocols in Immunology, supra. Briefly, fresh or frozen bone marrow cells were cultured in RPMI, 10% heat inactivated (30 minutes, 56° C.) fetal calf serum (FCS), 2 mM L-glutamine, 100 μg/ml streptomycin, 100 units/ml penicillin, 50 μM β-mercaptoethanol and 100 U/ml recombinant macrophage colony stimulating factor (M-CSF; R&D Systems). After 24 hours, nonadherent cells were removed to a new dish, and culture continued for 7 days to produce a macrophage monolayer. […]
(§2) BMDDC were treated overnight with adjuvants as indicated, washed, resuspended in cold PBS/2% FBS containing FcBlock (0.25 μg/10^6 cells; Pharmingen), and FITC- and PE-conjugated antibodies (1 μg/10^6 cells) were added 5 minutes later. Cells were incubate with antibodies on ice 30 minutes, washed, and analyzed by flow cytometry on a FACScan (Becton-Dickenson). […] Changes in CD86 expression are assessed based on geometric mean fluorescence of CD86-FITC staining of the live CD11c cells treated with adjuvants normalize to the geometric mean CD86-FITC fluorescence of untreated BMDDC cultures. […]

MyD88 [2] = assay: κB-Luc assay in RAW 264.7 cells co-transfected with dominant-negative MyD88lpr; type: cell-based, mouse; conditions: κB-Luc:MyD88lpr 10:1 or 1:1, oligonucleotides 4 μM, MPL 1 μg/ml, LPS 1 μg/ml
[3] = test system: MAPK pathways, including ERK, JNK and p38; assay: Immunoblotting for MAPK pathway phosphorylation (ERK1/2, JNK/c-jun, p38 substrate ATF2); type: cell-based, mouse; conditions: BMMO, dendritic cells and RAW 264.7; within an hour of stimulation; oligonucleotides 1 μM; data not shown
Protocol: as §1, with “monolayer. Nonadherent BMDDCs were produced by culture in the same medium supplemented with GM-CSF (200 U/ml; Preprotech) rather than M-CSF.” for “monolayer.”
Macrophages were differentiated from bone marrow cells of C57Bl/6 mice as described in Example 1 and then transferred to low serum medium lacking M-CSF for 4 hours. […] The positive result for ERK½ MAPK activation in RAW 264.7 cells and BMMO are in contrast to observations in another mouse macrophage cell line, J774, where ERK phosphorylation was not detected in CpG oligonucleotide-treated cells.

ERK = conditions: J774 mouse macrophage cell line; cited from earlier work
IκBα = assay: Immunoblotting for phosphorylated and total IκBα in RAW 264.7 cells; type: cell-based, mouse; conditions: 4 μM
Protocol: Following stimulation, BMMO or RAW 264.7 cells were lysed in 1% Triton X-100, 50 mM Tris, 62.5 mM EDTA (pH 8.0) with CompleteJ protease inhibitor cocktail (Boehringer Mannheim) (Triton lysis buffer). Lysates were boiled in reducing sample buffer, separated on 10% polyacrylamide gels using the NuPAGEJ Bis-Tris electrophoresis system (Novex). Nitrocellulose membranes were probed with antibodies against IκB-α, phosphorylated-IκB-α, (New England BioLabs), or anti-IL-18 (Santa Cruz Biotechnology) according to manufacturer's instructions, and visualized with enhanced chemiluminescence (Amersham).
Lysates were also prepared from untreated RAW 264.7 cells or cells treated with a phosphorothioate CpG oligonucleotide (4 μM) for 5, 10, 20 and 60 minutes as well as a control oligonucleotide lacking CpG motifs for 60 minutes. The lysates were then resolved by electrophoresis, and immunoblotted with antisera to phosphorylated IκBα and total IκBα. […] This activation was detected at the level of IκBα phosphorylation within 10 minutes of CpG oligonucleotide addition, and degradation of IκBα was notable at 20 minutes.

CD86 expression on BMDDC = assay: Flow cytometry of cell-surface CD86 on wild-type (Balb/c) BMDDC; type: cell-based, mouse; conditions: overnight, oligonucleotides 5 μM, LPS 1 μg/ml, normalized to untreated
Protocol: as §1, §2

MyD88 [4] = assay: κB luciferase assay of NIH-3T3 cells transfected with MyD88 dominant-negative constructs; type: cell-based, murine; conditions: FIG. 3A
From the text: (§3) In another set of experiments, three MyD88 constructs lacking the ability to transduce signals were amplified by PCR, and placed under constitutive control of the CMV promoter (pCMV-FLAG vector, Sigma Aldrich). The first construct, MyD88lpr, contains a point mutation F56N in the death domain. The second construct, MyD88-ΔDD, lacks the death domain completely. The third construct, MyD88-THD, lacks both the death domain and the intermediate domain. The DNA was transfected into RAW 264.7 cells or murine embryonic NIH-3T3 cells using a cationic lipid reagent. A luciferase reporter plasmid was cotransfected. […] Cells were then stimulated with CpG oligonucleotides and several control cytokines. Luciferase expression was assayed on a luminometer to determine if the mutant MyD88 protein had affected CpG signaling. Restriction analysis and sequencing results confirmed the presence of the MyD88 constructs (data not shown). […] The MyD88 TIR domain alone was sufficient to block signaling.

MyD88 [5] = assay: κB luciferase assay of RAW 264.7 cells transfected with MyD88 dominant-negative constructs; type: cell-based, mouse; conditions: FIG. 3B
From the text: as §3

Row | Molecule | κB-dependent luciferase expression (NF-κB; 6 hours, LPS 1 μg/ml) | Cell-surface CD86 expression on live CD11c positive cells [1] | Effect of dominant-negative MyD88lpr expression on induced κB-dependent luciferase activity (MyD88 [2]) | Phosphorylation of ERK, JNK and/or the JNK substrate c-jun, and of the p38 MAPK substrate ATF2 [3] | Effect of dominant negative MyD88 constructs (MyD88lpr, MyD88-ΔDD, MyD88-THD) on signaling to κB luciferase reporter (MyD88 [4]) | further results
1 | monophosphoiyl lipid A [MPL] | potent activators of NF-κB | no change in CD86 expression | inhibited |  |  | 
2 | tccaggacttctctcaggtt (TCCAGGACTTCTCTCAGGTT; DNA, all phosphorothioate, methylation of C not given here) [control oligonucleotide] | did not induce an increase |  |  | not |  | 
3 | tccatgacgttcctgacgtt [CpG oligonucleotide] | induced κB-dependent luciferase expression, to a level similar to that induced by MPL or LPS | an increase in CD86 expression similar to that observed in the wild-type BMDDC | inhibited | observed in all three cell types | specifically and selectively blocks signaling | κB-Luc activation at the lowest concentration tested (NF-κB; RAW 264.7, 0.05 μM, data not shown): not; Activation of the reporter gene at 10 μM dose relative to 8 μM (NF-κB; RAW 264.7, 10 μM, data not shown): not further enhanced; Concentration of maximal activation of the reporter gene (NF-κB; RAW 264.7, 6 hours, FIG. 1B): 8 µM; Lowest concentration at which κB-Luc activation was detected (NF-κB; RAW 264.7, 6 hours, FIG. 1B): 0.25 µM; Increase of κB-dependent luciferase expression by 2 hours (NF-κB; RAW 264.7, CpG oligonucleotide 4 μM, LPS 1 μg/ml, FIG. 1C): greater than two-fold increase; ERK phosphorylation (ERK): not detected; Time at which IκBα phosphorylation was detected after addition (IκBα): ≤ 10 min; Time at which degradation of IκBα was notable (IκBα): 20 min; Cell-surface CD86 expression on live CD11c positive cells (CD86 expression on BMDDC): increased cell-surface CD86 expression; Effect of dominant negative MyD88 constructs (MyD88lpr, MyD88-ΔDD, MyD88-THD) on signaling to κB luciferase reporter (MyD88 [5]): specifically and selectively blocks signaling
4 | IL-1: recombinant mouse interleukin-1β (Endogen) (protein, UniProt P10749 118-269, looked up) Interleukin-1 beta: VPIRQLHYRLRDEQQKSLVLSDPYELKALHLNGQNINQQVIFSMSFVQGEPSNDKIPVALGLKGKNLYLSCVMKDGTPTLQLESVDPKQYPKKKMEKRFVFNKIEVKSKVEFESAEFPNWYISTSQAEHKPVFLGNNSGQDIIDFTMESVSS | poor activator |  |  |  | did inhibit | 
5 | IL-18: recombinant mouse interleukin-18 (Biosource) (protein, UniProt P70380 36-192, looked up) Interleukin-18: NFGRLHCTTAVIRNINDQVLFVDKRQPVFEDMTDIDQSASEPQTRLIIYMYKDSEVRGLAVTLSVKDSKMSTLSCKNKIISFEEMDPPENIDDIQSDLIFFQKRVPGHNKMEFESSLYEGHFLACQKEDDAFKLILKKKDENGDKSVMFTLTNLHQS | poor activator |  |  |  |  | 
